Measured values: patent US7879370B2, “Composition of which chief ingredient is polysaccharides having an immunoregulatory function” (Merican Corporation, priority 2006, dated 2011)

Format: in vivo, BALB/c mice
Settings: mouse antiallergy test, days 0 to 22; FIG. 9
Description: Body weight was determined with a scale on days 0, 7, 14, and 22. General symptoms were observed daily from day 0 to day 22. Blood plasma analysis was conducted by measuring the OVA-specific IgE level using plasma obtained by centrifuging blood drawn from the ophthalmic vein on days 0, 14, 18, and 22.

For O=P1(N(CCCl)CCCl)NCCCO1 (stereo not shown) [cyclophosphamide], the “change in body weights” value was “reduction in the body weight”.
